From patent US20050069513A1, “Amphiphilic compounds for pharmaceutical or cosmetic use” (Physica S.A.R.L., priority 2001, published 2005)

Assay: Formation of ion pair in aqueous phase: solubility / appearance of solutions
Format: physicochemical
Conditions: acylamino acid dispersed in aqueous phase, milky white appearance
Excerpt: Two aqueous solutions are used. The first contains calcitonin. Due to the fact that the calcitonin is hydrophilic, the solution is clear. […] This second solution has a milky white appearance.
The obtained complex, calcitonin oleyl methyl glycine, is therefore amphiphilic.
Two aqueous solutions are used. The first contains lidocaine dispersed in the aqueous solution. […] This second solution has a milky white appearance.
The obtained complex, lidocaine oleyl glycine, is therefore amphiphilic.
A solution of NaOH in the quantity required for causing precipitation of all of the polymyxin E by deplacement of the sulphate salt is added to a solution of polymyxin E sulphate. Polymyxin E, also known as colistin, thereby goes back to its non-salified, basic structure. The resulting solution, solution B, is thus an aqueous phase with a precipitate of polymyxin E.
The polymyxin is thus resolubilized in the form of an amphiphilic complex, polymyxin E linoleyl glycine.

Solubility in water, only slightly soluble in water:
CCCCC/C=C\C/C=C\CCCCCCCCNCC(=O)O [linoleyl glycine]
CCCCCCCC/C=C\CCCCCCCCNCC(=O)O [oleyl glycine]
CCCCCCCC/C=C\CCCCCCCCN(C)CC(=O)O [oleyl methyl glycine]
